{
  "source": "patent US20110256147A1",
  "about": "“DIAGNOSTIC AND TREATMENT METHODS FOR CANCER BASED ON IMMUNE INHIBITORS” (THE JOHNS HOPKINS UNIVERSITY, priority 2008, published 2011)",
  "system": "CD1d-mediated activation of NKT cells",
  "assay": "CD1d-mediated activation of a panel of NKT cell hybridomas by pretreated LCD1dwt cells, IL-2 ELISA",
  "assay_type": "cell-based, mouse",
  "details": "LCD1dwt cells treated 4 h; DN32.D3, N37-1A12, N38-3C3",
  "description": "FIG. 2. […] LCD1dwt cells were treated with 1 ml media containing 5% FBS, FBS, human AB serum or serum from the indicated patients for 3-4 h, washed extensively and then co-cultured with N37-1A12 and N38-3C3 NKT cell hybridomas. IL-2 was measured by standard cytokine ELISA, and data is shown as percent control, normalized to cells treated with culture media as 100% or the maximum level of stimulation.\nFIG. 4. Treatment with ovarian cancer associated ascites has no effect on HLA-A2 mediated antigen presentation. […] IFN-γ released was measured by ELISA. […] NKT cell recognition of CD1d was assessed by measuring IL-2 production in the supernatants by ELISA.\nFIG. 5. […] NKT cell recognition of CD1d1 was assessed by measuring IL-2 production in the supernatants by ELISA. […]\nFIG. 6. […] IL-2 was measured, as an indication of NKT cell activation, by standard cytokine ELISA. […] NKT cell recognition of CD was assessed by measuring IL-2 production in the supernatants by ELISA. […]\nFIG. 7. […] (A) IL-2 was measured, or GM-CSF (B) as an indication of NKT cell activation, by standard cytokine ELISA. […] The extracted lipids were analyzed by thin-layer chromatography (TLC) (HPTLC Silica Gel 60; Merck, Darmstadt, Germany) with chloroform-methanol-0.25% aqueous KCl (60:35:8) as running solvent. Gangliosides were detected with a resorcinol—HCl Cu2+ reagent. […]",
  "data": [
    {"substance": "GT1b", "values": [
      {"measurement": "CD1d-mediated activation of NKT cells, increasing doses of ganglioside", "result": "did not inhibit"}
    ]}
  ]
}
